Test results as given in patent US10113114B2, “Apparatus and method for coating particulate material” (BASF Corporation, priority 2013, dated 2018).

Test system: red imported fire ant (Solenopsis invicta) workers
Conditions: all rates tested (0.5 to 3 X label rate)
Excerpt: Testing with red imported fire ant (Solenopsis invicta, RIFA), Argentine ant (Linepthema humile), and odorous house ant (OHA) workers. Ten inch plastic arenas (inside walls coated with Fluon® to prevent escape) were provided a layer of moistened play sand. A band of mulch was placed across the arena near one side. Between the closest side and the mulch, a micro-centrifuge tube with a universal ant diet was placed. In the larger open area of the arena was placed a water vial and a small weigh boat with either corn grit+soybean oil (RIFA) or 20% honey water (Argentine ant and OHA). Approximately 100 ants were placed in each arena. Mortality was evaluated at 6 or 7 days.

CN/C(=N/CC1CCOC1)N[N+](=O)[O-] (stereo not shown) [dinotefuran]
efficacy of the insecticide on mulch (in words): effective at all rates tested
